Laboratory results reported in patent US7723068B2, “Gene cluster involved in safracin biosynthesis and its uses for genetic engineering” (PharmaMar, S.A., priority 2002, dated 2010).

Test system: DU-145
Experiment: cells
Conditions: Homo sapiens, DU-145, read-out: GI50 DU-145

SMILES | GI50
COc1c(C)cc2c(c1O)C1C3Cc4cc(C)c(OC)c(O)c4C(CNC(=O)C(C)N)N3C(O)C(C2)N1C (stereo not shown) [Safracin P-22B] | 4.58 µM

Same assay, conditions: Homo sapiens, DU-145, read-out: LC50 DU-145

SMILES | CC50
COc1c(C)cc2c(c1O)C1C3Cc4cc(C)c(OC)c(O)c4C(CNC(=O)C(C)N)N3C(O)C(C2)N1C (stereo not shown) [Safracin P-22B] | 16.2 µM

Test system: DU-145
Experiment: not given
Conditions: Prostate

SMILES | TGI DU-145
COc1c(C)cc2c(c1O)C1C3Cc4cc(C)c(OC)c(O)c4C(CNC(=O)C(C)N)N3C(O)C(C2)N1C (stereo not shown) [Safracin P-22B] | 8.62 µM

Test system: LN-caP
Experiment: not given
Conditions: Prostate

SMILES | TGI LN-caP
COc1c(C)cc2c(c1O)C1C3Cc4cc(C)c(OC)c(O)c4C(CNC(=O)C(C)N)N3C(O)C(C2)N1C (stereo not shown) [Safracin P-22B] | 0.608 µM

Test system: SK-MEL-28
Experiment: not given
Conditions: Melanoma

SMILES | TGI SK-MEL-28
COc1c(C)cc2c(c1O)C1C3Cc4cc(C)c(OC)c(O)c4C(CNC(=O)C(C)N)N3C(O)C(C2)N1C (stereo not shown) [Safracin P-22B] | 0.999 µM

Test system: LOVO
Experiment: not given
Conditions: Colon

SMILES | TGI LOVO
COc1c(C)cc2c(c1O)C1C3Cc4cc(C)c(OC)c(O)c4C(CNC(=O)C(C)N)N3C(O)C(C2)N1C (stereo not shown) [Safracin P-22B] | 6.84 µM

Test system: IGROV-ET
Experiment: not given
Conditions: Ovary

SMILES | TGI IGROV-ET
COc1c(C)cc2c(c1O)C1C3Cc4cc(C)c(OC)c(O)c4C(CNC(=O)C(C)N)N3C(O)C(C2)N1C (stereo not shown) [Safracin P-22B] | 7.04 µM

Test system: LOVO-DOX
Experiment: not given
Conditions: Colon

SMILES | TGI LOVO-DOX
COc1c(C)cc2c(c1O)C1C3Cc4cc(C)c(OC)c(O)c4C(CNC(=O)C(C)N)N3C(O)C(C2)N1C (stereo not shown) [Safracin P-22B] | 19 µM

Test system: HT29
Experiment: cells
Conditions: Homo sapiens, HT-29, read-out: GI50 HT29

SMILES | GI50
COc1c(C)cc2c(c1O)C1C3Cc4cc(C)c(OC)c(O)c4C(CNC(=O)C(C)N)N3C(O)C(C2)N1C (stereo not shown) [Safracin P-22B] | 1.01 µM

Same assay, conditions: Homo sapiens, HT-29, read-out: LC50 HT29

SMILES | CC50
COc1c(C)cc2c(c1O)C1C3Cc4cc(C)c(OC)c(O)c4C(CNC(=O)C(C)N)N3C(O)C(C2)N1C (stereo not shown) [Safracin P-22B] | 18.6 µM

Test system: SK-BR3
Experiment: cells
Conditions: Homo sapiens, SK-BR-3, read-out: GI50 SK-BR3

SMILES | GI50
COc1c(C)cc2c(c1O)C1C3Cc4cc(C)c(OC)c(O)c4C(CNC(=O)C(C)N)N3C(O)C(C2)N1C (stereo not shown) [Safracin P-22B] | 0.824 µM

Same assay, conditions: Homo sapiens, SK-BR-3, read-out: LC50 SK-BR3

SMILES | CC50
COc1c(C)cc2c(c1O)C1C3Cc4cc(C)c(OC)c(O)c4C(CNC(=O)C(C)N)N3C(O)C(C2)N1C (stereo not shown) [Safracin P-22B] | 8.85 µM

Test system: PANC1
Experiment: cells
Conditions: Homo sapiens, PANC-1, read-out: GI50 PANC1

SMILES | GI50
COc1c(C)cc2c(c1O)C1C3Cc4cc(C)c(OC)c(O)c4C(CNC(=O)C(C)N)N3C(O)C(C2)N1C (stereo not shown) [Safracin P-22B] | 4.77 µM

Same assay, conditions: Homo sapiens, PANC-1, read-out: LC50 PANC1

SMILES | CC50
COc1c(C)cc2c(c1O)C1C3Cc4cc(C)c(OC)c(O)c4C(CNC(=O)C(C)N)N3C(O)C(C2)N1C (stereo not shown) [Safracin P-22B] | > 19 µM

Test system: HELA
Experiment: cells
Conditions: Homo sapiens, read-out: GI50 HELA

SMILES | GI50
COc1c(C)cc2c(c1O)C1C3Cc4cc(C)c(OC)c(O)c4C(CNC(=O)C(C)N)N3C(O)C(C2)N1C (stereo not shown) [Safracin P-22B] | 0.761 µM

Same assay, conditions: Homo sapiens, read-out: LC50 HELA

SMILES | CC50
COc1c(C)cc2c(c1O)C1C3Cc4cc(C)c(OC)c(O)c4C(CNC(=O)C(C)N)N3C(O)C(C2)N1C (stereo not shown) [Safracin P-22B] | 7.42 µM

Test system: IGROV-ET
Experiment: cells
Conditions: read-out: GI50 IGROV-ET

SMILES | GI50
COc1c(C)cc2c(c1O)C1C3Cc4cc(C)c(OC)c(O)c4C(CNC(=O)C(C)N)N3C(O)C(C2)N1C (stereo not shown) [Safracin P-22B] | 3.02 µM

Same assay, conditions: read-out: LC50 IGROV-ET

SMILES | CC50
COc1c(C)cc2c(c1O)C1C3Cc4cc(C)c(OC)c(O)c4C(CNC(=O)C(C)N)N3C(O)C(C2)N1C (stereo not shown) [Safracin P-22B] | 16.5 µM

Test system: not listed separately
Experiment: Antibacterial and antitumoral activities, general statements
Conditions: compared with safracin A / safracin B

SMILES | antibacterial and antitumoral activities (in words)
COc1c(C)cc2c(c1O)C1C3Cc4cc(C)c(OC)c(O)c4C(CNC(=O)C(C)N)N3C(O)C(C2)N1C (stereo not shown) [Safracin P-22B] | appear to loose their activity

Test system: SK-MEL-28
Experiment: cells
Conditions: Homo sapiens, SK-MEL-28, read-out: GI50 SK-MEL-28

SMILES | GI50
COc1c(C)cc2c(c1O)C1C3Cc4cc(C)c(OC)c(O)c4C(CNC(=O)C(C)N)N3C(O)C(C2)N1C (stereo not shown) [Safracin P-22B] | 0.52 µM

Same assay, conditions: Homo sapiens, SK-MEL-28, read-out: LC50 SK-MEL-28

SMILES | CC50
COc1c(C)cc2c(c1O)C1C3Cc4cc(C)c(OC)c(O)c4C(CNC(=O)C(C)N)N3C(O)C(C2)N1C (stereo not shown) [Safracin P-22B] | 2.01 µM

Test system: LN-caP
Experiment: cells
Conditions: Homo sapiens, LNCaP, read-out: GI50 LN-caP

SMILES | GI50
COc1c(C)cc2c(c1O)C1C3Cc4cc(C)c(OC)c(O)c4C(CNC(=O)C(C)N)N3C(O)C(C2)N1C (stereo not shown) [Safracin P-22B] | 0.308 µM
